Test results as given in EP3153515A1, “COMPOUNDS FOR INHIBITING HEPATITIS C VIRUS, PHARMACEUTICAL COMPOSITIONS AND USES THEREOF” (priority 2014, dated 2015).
Read-outs that look alike come from different tables or passages of the source.

How the values were obtained:
[1] = test system: HCV NS5A replicon GT-lb; test: HCV NS5A replicon anti-viral activity (EC50), GT-1b; format: cell-based; conditions: Hepatitis C virus, genotype 1a / genotype 6a, read-out: Inhibitory activity against various HCV-NS5A subtypes(EC50, GT-1a to GT-6a) GT-lb
Excerpt: (§1) The autonomous replication level of HCV in liver cells in vitro is very low, and the only animal that can be infected by HCV is chimpanzee, therefore there is no appropriate animal model currently available for preclinical pharmacodynamic study. Some researchers have transplanted human liver tissue infected with HCV in vitro into immune deficient mice to establish an in vivo mice model, but these mice are hard to raise and the model is unstable and short of normal immunologic reaction. Moreover, the model has significant difference with the pathogenic process of hepatitis C, therefore, it has not been used for animal model to assess the action of anti-HCV medicine yet. The progress of the development of anti-viral drugs for the treatment of HCV infection had been very slow because the pathogenic mechanism and life cycle of HCV were unclear before 1999 due to the lack of cell culture system for effective multiplication of HCV. But researchers managed to achieve a breakthrough in 1999 after numerous attempts. An effective cell culture model-replicon system in which HCV is capable of autonomous replication in transfected human hepatic carcinoma cell line Huh-7 had been established in that year on the basis of subgenomic HCV RNA built with genetic engineering.
(§2) The above-mentioned cell culture model-replicon system which has been widely accepted in the industry is used in this invention for ex vivo experiments and subsequent assessment of drugs based on the experiment results.
(§3) The therapeutic effect of the compounds of this invention on HCV infection can be preliminarily assessed through the following preclinical in vitro inhibitory action test and can be further confirmed in clinical trials. Other methods used in the invention are also quite familiar to professionals in this field with ordinary technical knowledge. Method for testing the anti-viral activity(EC50) in HCV NS5A replicon system: • The viral replication level in infected cells was determined by testing Renilla luciferase with the newly established dual-reporter gene replicon system. There was a good linear relation between the expression level of the reporter gene and the HCV RNA replication level and viral protein expression level. The anti-viral activity was determined for 3 replicates in 3 replicate cells at five(5) 1:2 diluted concentration gradients, with 1 to 2 positive controls. The EC50 of the compounds was calculated in the end.
(§4) The compounds of the invention, or their stereoisomers, tautomers, esterified or amidated prodrugs, or pharmaceutically acceptable salts and mixtures have been subjected to test to determined their therapeutic effects in the treatment of HCV infection. […] Moreover, the results of 6a-6ep(Ia), 6fa-6gq(Ib) and reference compounds Ref-1(BMS-790052), Ref-2(GS5885), Ref-3 in HCV-NS5 inhibition test reveal that the cyclopentanyl/hexamethyleneamino radical containing linear polypeptide compounds 6a-6ep, 6fa-6gq and reference compounds Ref-1, Ref-2, Ref-3 have good HCV inhibitory results. […] The replicons GT-1a, GT-lb, GT-2a, GT-3a, GT-4a, GT-5a and GT-6a used for the test are routine replicons commercially available in this field. Table 1: HCV NS5A replicon inhibitory activity test results of compounds (6a-6gq) of the invention

[2] = test system: ICR mice; test: MTD screening test (acute toxicity study) in mice; format: in vivo; conditions: high dosage
Experimental: Method: ICR mice, 10 mice/group, 5 males and 5 females. A treatment group and a control group are set up for every drugs, respectively, mice in control group were administered 0.5%CMC-Na solution, i.e. the solvent of the drugs. The mice were fasted overnight but granted free access to water before the administration. Their body weight before the administration of drugs is in the range of 18.8∼24.1 g. The mice were administered the drugs by peroral lavage at the dosage of 40 mL/kg. The mice were closely observed 3 hours after the administration and twice a day afterwards for 7 days, one in the morning and one in the afternoon. At the end of the observation period, 2 mice (1 male and 1 female) were randomly selected from each treatment group and subjected to histopathological examination of part of their tissues and organs.
Two third of the novel heterocyclic compounds that have good HCV inhibiting activity (EC50: <0.05nM) after administration of the drugs by lavage at the dosage of 2000mg/kg yield a survival rate of 100%. […] Two third of the novel compounds that show high HCV inhibiting activity have very low overall toxicity (survive rate of mice after administration: 100%). It is believed that these compounds are generally nontoxic.

[3] = test system: HCV NS5A replicon GT-4a; test: HCV NS5A replicon anti-viral activity (EC50), GT-4a; format: cell-based; conditions: Hepatitis C virus, genotype 1a / genotype 4a / genotype 6a, read-out: Inhibitory activity against various HCV-NS5A subtypes(EC50, GT-1a to GT-6a) GT-4a
Excerpt: as §1, §2, §3, §4

[4] = test system: HCV NS5A replicon GT-2a; test: HCV NS5A replicon anti-viral activity (EC50), GT-2a; format: cell-based; conditions: Hepatitis C virus, genotype 1a / genotype 2a / genotype 6a; GT-2a replicon; read-out: Inhibitory activity against various HCV-NS5A subtypes(EC50, GT-1a to GT-6a) GT-2a
Excerpt: as §1, §2, §3, §4

[5] = test system: HCV NS5A replicon GT-5a; test: HCV NS5A replicon anti-viral activity (EC50), GT-5a; format: cell-based; conditions: Hepatitis C virus, genotype 1a / genotype 5a / genotype 6a, read-out: Inhibitory activity against various HCV-NS5A subtypes(EC50, GT-1a to GT-6a) GT-5a
Excerpt: as §1, §2, §3, §4

[6] = test system: HCV NS5A replicon GT-3a; test: HCV NS5A replicon anti-viral activity (EC50), GT-3a; format: cell-based; conditions: Hepatitis C virus, genotype 1a / genotype 3a / genotype 6a, read-out: Inhibitory activity against various HCV-NS5A subtypes(EC50, GT-1a to GT-6a) GT-3a
Excerpt: as §1, §2, §3, §4

[7] = test system: HCV NS5A replicon GT-1a; test: HCV NS5A replicon anti-viral activity (EC50), dual-reporter Renilla luciferase, GT-1a; format: cell-based; conditions: for EC50: Hepatitis C virus
[8] = test system: HCV NS5A replicon GT-6a; test: HCV NS5A replicon anti-viral activity (EC50), GT-6a; format: cell-based; conditions: Hepatitis C virus, genotype 1a / genotype 6a; GT-6a replicon; read-out: Inhibitory activity against various HCV-NS5A subtypes(EC50, GT-1a to GT-6a) GT-6a
Excerpt: as §1, §2, §3, §4

[9] = GT1A, GT-1a replicon, read-out: NS5A Inhibitory Activity (EC50 of GT-1a subtype inhibition)

| Structure (SMILES) | EC50 [1] | toxicity (in words) [2] | EC50 [3] | EC50 [4] | EC50 [5] | EC50 [6] | EC50 [7, 9] | EC50 ([7]; genotype 1a / genotype 6a, read-out: Inhibitory activity against various HCV-NS5A subtypes(EC50, GT-1a to GT-6a) GT-1a) | inhibitory activity compared with Ref-1(BMS-790052), Ref-2(GS5885), Ref-3 and Ref-4 (in words) ([7]; comparison drawn from Table 2) | EC50 [8] |
| --- | --- | --- | --- | --- | --- | --- | --- | --- | --- | --- |
| COC(=O)N[C@H](C(=O)N1CCC[C@H]1c1nc(-c2ccc(-c3ccc(-c4cnc([C@@H]5C=CCN5C(=O)[C@H](NC(=O)OC)c5ccccc5)[nH]4)cc3)cc2)c[nH]1)C(C)C [6dy] | 0.014 nM | low toxicity at high dosage | 0.008 nM | 0.006 nM | 0.023 nM | 0.015 nM | 0.001 to 0.999 nM | 0.011 nM | significantly superior | 0.024 nM |
| COC(=O)N[C@@H](C(=O)N1CC=C[C@H]1c1ncc(-c2ccc(-c3csc4c(-c5c[nH]c([C@@H]6CCCN6C(=O)[C@H](NC(=O)OC)c6ccccc6)n5)csc34)cc2)[nH]1)c1ccccc1 [6fm] | – | low toxicity at high dosage | – | – | – | – | 0.001 to 0.999 nM | – | – | – |
